# Test results from patent US11850273B2, “Chemical reprogramming of human glial cells into neurons for brain and spinal cord repair” (The Penn State Research Foundation, priority 2014, dated 2023).
# System: human astrocyte-converted neurons
# Assay: Patch clamp whole-cell recordings of human astrocyte-converted neurons
substance,measurement,value
DNQX,effect on spontaneous burst activities,abolished
